The values that follow come from US5770573A, “CS-1 peptidomimetics, compositions and methods of using the same” (Cytel Corporation, priority 1995, dated 1998).

Each structure is given as a SMILES string. Read-outs that look alike come from different tables or passages of the source. Square brackets hold non-standard residues; d marks the D form. Peptide text beside a SMILES is read from it. * marks the point of attachment. Pyrazinecarbonyl = O=C(c1cnccn1)*; Cya = N[C@@H](CS(=O)(=O)O)C(=O)O; Brosyl = O=S(=O)(c1ccc(Br)cc1)*; Cha = N[C@@H](CC1CCCCC1)C(=O)O; Isonicotinoyl = O=C(c1ccncc1)*; NMeV = CN[C@H](C(=O)O)C(C)C; Morpholide = C1CN(*)CCO1; Piperidide = C1CCN(*)CC1; Nva = CCC[C@H](N)C(=O)O; NHDecyl = CCCCCCCCCCN*; PhAc = O=C(Cc1ccccc1)*; X1 = CCCCCCCCCCCCCCO*; Inp = O=C(O)C1CCNCC1; OBn = c1ccc(CO*)cc1

The assay deals with VLA-4 (Homo sapiens, UniProt P05556+P13612). Description: In vitro binding inhibition of 51Cr-labeled Jurkat cells to solid phase-bound CS-1 compound (SEQ ID NO:1). As to conditions: for Relative Potency (prodrug compound): relative to SEQ ID NO:3 = 1, potency before the prodrug compound is enzymatically converted to an active form. Set-up: inflammatory cells that contain the VLA-4 receptor [Jurkat cells; host or cells: Jurkat (human T lymphoblastic line). It counts as cell-based. In outline:
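51Cr-labeled human Jurkat cells were preincubated with compound 30 min at about 22° C, then allowed to bind to wells coated with CS-1 peptide or CS-1-OVA for 30 min at 37° C. After washing, bound cells were lysed with SDS and counted. IC50 is the concentration halving binding, normalized to SEQ ID NO: 3.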

Where [1] appears, read: binding inhibition potency relative to standard compound of SEQ ID NO:3 = 1 (normalized IC50), about one-tenth or less assigned zero.

VLA-4, sequence (P13612 34-1032): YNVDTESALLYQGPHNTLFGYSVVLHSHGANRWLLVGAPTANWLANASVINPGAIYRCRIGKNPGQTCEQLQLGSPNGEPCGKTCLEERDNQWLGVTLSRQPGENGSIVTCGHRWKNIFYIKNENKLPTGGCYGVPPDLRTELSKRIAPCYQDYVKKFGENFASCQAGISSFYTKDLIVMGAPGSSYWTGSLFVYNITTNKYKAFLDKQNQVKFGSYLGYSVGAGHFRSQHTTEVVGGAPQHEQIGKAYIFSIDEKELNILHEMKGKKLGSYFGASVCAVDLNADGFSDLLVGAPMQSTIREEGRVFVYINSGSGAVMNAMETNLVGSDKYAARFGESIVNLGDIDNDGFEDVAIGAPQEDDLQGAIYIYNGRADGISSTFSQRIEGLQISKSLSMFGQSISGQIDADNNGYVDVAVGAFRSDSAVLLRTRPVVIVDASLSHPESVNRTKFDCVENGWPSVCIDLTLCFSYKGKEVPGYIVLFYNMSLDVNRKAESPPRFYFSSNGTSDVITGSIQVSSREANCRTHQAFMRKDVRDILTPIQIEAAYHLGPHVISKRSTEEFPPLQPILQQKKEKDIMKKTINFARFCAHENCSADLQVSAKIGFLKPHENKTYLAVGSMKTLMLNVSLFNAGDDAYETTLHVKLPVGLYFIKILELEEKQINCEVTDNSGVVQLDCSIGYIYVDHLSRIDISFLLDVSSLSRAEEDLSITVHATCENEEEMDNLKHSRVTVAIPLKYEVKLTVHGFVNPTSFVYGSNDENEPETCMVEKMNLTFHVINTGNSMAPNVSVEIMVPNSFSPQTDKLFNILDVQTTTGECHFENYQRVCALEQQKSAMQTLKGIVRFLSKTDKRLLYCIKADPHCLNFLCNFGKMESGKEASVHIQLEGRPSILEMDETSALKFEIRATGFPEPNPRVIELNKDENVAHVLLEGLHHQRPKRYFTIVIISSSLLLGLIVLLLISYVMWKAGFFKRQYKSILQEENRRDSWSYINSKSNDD
VLA-4, sequence (P05556 21-798): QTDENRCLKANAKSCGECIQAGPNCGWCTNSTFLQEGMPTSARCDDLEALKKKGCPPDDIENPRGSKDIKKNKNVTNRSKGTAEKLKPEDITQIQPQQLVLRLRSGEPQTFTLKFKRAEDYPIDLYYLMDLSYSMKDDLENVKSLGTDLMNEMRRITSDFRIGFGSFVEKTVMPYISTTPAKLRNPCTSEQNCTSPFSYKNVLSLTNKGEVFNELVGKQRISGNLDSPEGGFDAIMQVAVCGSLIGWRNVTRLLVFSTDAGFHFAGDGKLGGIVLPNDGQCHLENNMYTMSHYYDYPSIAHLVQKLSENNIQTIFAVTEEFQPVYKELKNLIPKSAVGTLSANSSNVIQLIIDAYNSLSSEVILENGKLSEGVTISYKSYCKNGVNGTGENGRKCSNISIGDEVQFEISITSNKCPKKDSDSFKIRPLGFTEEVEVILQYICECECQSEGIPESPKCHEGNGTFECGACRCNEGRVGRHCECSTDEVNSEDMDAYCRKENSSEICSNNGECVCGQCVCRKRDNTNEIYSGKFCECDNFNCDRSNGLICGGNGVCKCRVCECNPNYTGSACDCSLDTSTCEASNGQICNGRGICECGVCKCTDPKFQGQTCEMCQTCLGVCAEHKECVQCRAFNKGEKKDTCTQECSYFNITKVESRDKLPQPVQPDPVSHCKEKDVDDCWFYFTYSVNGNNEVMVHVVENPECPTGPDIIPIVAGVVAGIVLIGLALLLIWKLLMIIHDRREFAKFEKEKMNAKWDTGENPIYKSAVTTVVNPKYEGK

On to `CC(C)CCC(=O)N[C@@H](CC(C)C)C(=O)N[C@@H](CC(=O)O)C(=O)N[C@H](C(=O)N1CCC[C@@H]1C(N)=O)C(C)C` [896.47], for which the “Relative Potency” value is reported as 5.01. With `CC(C)C[C@H](NC(=O)Cc1ccccc1)C(=O)N[C@@H](CC(=O)O)C(=O)N1C(=O)N(Cc2ccccc2)C(=O)[C@H]1Cc1ccccc1` [1047.07], under setting [1], the “Relative Potency” value was “.38”. Turning to `CC(C)CC(C(=O)NCc1ccccc1)C(=O)N[C@@H](CC(=O)O)C(=O)N[C@@H](Cc1ccccc1)C(=O)N1CCC[C@@H]1C(N)=O` (stereo partly shown) [1034.01], the “Relative Potency” value worked out at 1.96. On to `CC[C@H](C)[C@H](N)C(=O)N[C@@H](CC(C)C)C(=O)N[C@@H](CC(=O)O)C(=O)N[C@@H](Cc1ccccc1)C(=O)N1CCC[C@H]1C(N)=O` [926.12] (H-ILDFP-NH2), for which the “Relative Potency” value is recorded as 1.99. Turning to `CC(C)C[C@H](NC(=O)c1ccncc1)C(=O)N[C@@H](CC(=O)O)C(=O)N[C@@H](Cc1ccc(O)cc1)C(=O)N1CCCCC1` [1045.01], the “Relative Potency” value was found to be 23.8. Regarding `CCCCCCCCCCCCCCOC(=O)C[C@H](NC(=O)[C@H](CC(C)C)NC(=O)Cc1ccccc1)C(=O)N[C@@H](Cc1ccccc1)C(=O)N1CCC[C@@H]1C(N)=O` [1068.11] (PhAc-LD(X1)F[dP]-NH2), the “Relative Potency (prodrug compound)” value turned out to be 0. As for `CC(C)C[C@H](NC(=O)[C@@H](N)Cc1ccccc1)C(=O)N[C@@H](CC(=O)O)C(=O)N[C@H](C(=O)N1CCC[C@@H]1C(N)=O)C(C)C` [926.04] (H-FLDV[dP]-NH2), the “Relative Potency” value was 1.88. For `CC[C@H](C)[C@H](N)C(=O)N[C@@H](CC1CCCCC1)C(=O)N[C@@H](CC(=O)O)C(=O)N[C@H](C(=O)N1CCC[C@H]1C(N)=O)C(C)C` [926.08] (H-I[Cha]DVP-NH2), the “Relative Potency” value is “.47”. In the case of `CC(=O)N[C@@H](CC(C)C)C(=O)N[C@@H](CC(=O)O)C(=O)N[C@@H](Cc1ccccc1)C(N)=O` [926.32] (Ac-Leu-Asp-Phe-NH2), the “Relative Potency” value is on record as “.47”.

In the case of `CC(C)C[C@H](NC(=O)c1cnccn1)C(=O)N[C@@H](CC(=O)O)C(=O)N[C@@H](Cc1ccccc1)C(=O)N1CCC[C@@H]1C(N)=O` [951.02] (Pyrazinecarbonyl-LDF[dP]-NH2), the “Relative Potency” value is recorded as 19.4.

As for `CC[C@H](C)[C@H](N)C(=O)N[C@@H](CC(C)C)C(=O)N[C@@H](CC(=O)O)C(=O)N(C)[C@H](C(=O)N1CCC[C@H]1C(N)=O)C(C)C` [926.18] (H-ILD[NMeV]P-NH2), the “Relative Potency” value was 0. `CC(C)C[C@H](NC(=O)Cc1ccccc1)C(=O)N[C@@H](CC(=O)O)C(=O)N[C@@H](Cc1ccccc1)C(=O)N1CCN(CCOCCO)CC1` [1111.07]: under setting [1], the “Relative Potency” value was found to be 510.

Take `O=C(O)CC(C(=O)N[C@@H](Cc1ccccc1)C(=O)N1CCCCC1)N1CC[C@H](NC(=O)Cc2ccccc2)C1=O` (stereo partly shown) [1057.01]: under setting [1], the “Relative Potency” value is given as “.88”. For the compound `CC(C)C[C@H](NC(=O)C1CCCCC1)C(=O)N[C@@H](CC(=O)O)C(=O)N[C@H](C(=O)N1CCC[C@@H]1C(N)=O)C(C)C` [896.49], the “Relative Potency” value came to 9.08. In the case of `CC(C)C[C@H](NC(=O)c1cccc2ccccc12)C(=O)N[C@@H](CC(=O)O)C(=O)N[C@H](C(=O)N1CCC[C@@H]1C(N)=O)C(C)C` [896.43], under setting [1], the “Relative Potency” value is on record as 4.38. As for `CCCCCCCCCC(=O)OC1CCN(C(=O)[C@H](Cc2ccccc2)NC(=O)[C@H](CC(=O)O)NC(=O)[C@H](CC(C)C)NC(=O)Cc2ccccc2)CC1` [1068.06], the “Relative Potency (prodrug compound)” value was “.63”. As for `CC(=O)N[C@@H](CO)C(=O)N[C@@H](Cc1ccccc1)C(=O)N[C@@H](CC(=O)O)C(=O)N[C@@H](Cc1ccccc1)C(=O)N[C@@H](CO)C(N)=O` [951.46] (Ac-SFDFS-NH2), the “Relative Potency” value is on record as “.22”. With `CC(C)C[C@H](NC(=O)Cc1ccccc1)C(=O)N[C@@H](CC(=O)O)C(=O)N[C@@H](Cc1ccccc1)C(=O)N1CCSCC1` [1111.02], the “Relative Potency” value under setting [1] stood at 450.

`CC(C)C[C@H](NC(=O)Cc1ccccc1)C(=O)N[C@@H](CC(=O)O)C(=O)NC1CCCCNC1=O` (stereo partly shown) [1043.02]: the “Relative Potency” value under setting [1] was determined as 26.8. Consider `CCCCCCCCCCNC(=O)[C@@H]1CCCN1C(=O)[C@H](Cc1ccccc1)NC(=O)[C@H](CC(=O)O)NC(=O)[C@H](CC(C)C)NC(=O)Cc1ccccc1` [1068.04] (PhAc-LDFP-NHDecyl), for which the “Relative Potency (prodrug compound)” value is recorded as 2.13. Regarding `CC(C)C[C@H](NC(=O)Cc1ccccc1)C(=O)N[C@@H](CC(=O)O)C(=O)N[C@@H](Cc1ccccc1)C(=O)N1CCC(C(N)=O)CC1` [1111.05] (PhAc-LDF[Inp]-NH2), the “Relative Potency” value under setting [1] amounted to 942. `CCC[C@H](NC(=O)[C@H](CC(=O)O)NC(=O)[C@H](CC(C)C)NC(=O)[C@@H](N)[C@@H](C)CC)C(=O)N1CCC[C@H]1C(N)=O` [926.16] (H-ILD[Nva]P-NH2): the “Relative Potency” value is reported as “.34”.

In the case of `Cc1ccc(C(=O)N[C@@H](CC(C)C)C(=O)N[C@@H](CC(=O)O)C(=O)N[C@H](C(=O)N2CCC[C@@H]2C(N)=O)C(C)C)cc1C` [896.37], the “Relative Potency” value came to 5.01. On to `CC(C)C[C@H](NC(=O)Cc1ccccc1)C(=O)N[C@@H](CC(=O)O)C(=O)N[C@@H](Cc1ccccc1)C(=O)N1CC[N+](C)(C)CC1` [1111.08], for which the “Relative Potency” value under setting [1] is recorded as 218. Still for that read-out and setting: for `CC(C)C[C@H](NC(=O)Cc1ccccc1)C(=O)N[C@@H](CC(=O)O)C(=O)N[C@@H](Cc1ccc(O)cc1)C(=O)N1CCOCC1` [1045.02] (PhAc-Leu-Asp-Tyr-Morpholide) the value was 313; for `CC(C)C[C@H](NC(=O)Cc1ccccc1)C(=O)N[C@@H](CC(=O)O)C(=O)N[C@@H](CO)C(=O)N1CCC[C@@H]1C(N)=O` [896.72] (PhAc-LDS[dP]-NH2), 16.9. As for `CC(C)C[C@H](NC(=O)Cc1ccccc1)C(=O)N[C@@H](CC(=O)O)C(=O)NCC(=O)N1CCOCC1` [997.16] (PhAc-Leu-Asp-Gly-Morpholide), the “Relative Potency” value under setting [1] was found to be 9.23. Consider `CC(C)C[C@H](NC(=O)Cc1ccccc1)C(=O)N[C@@H](CS(=O)(=O)O)C(=O)N[C@@H](Cc1ccccc1)C(=O)N1CCCCC1` [1026.06] (PhAc-Leu-[Cya]-Phe-Piperidide), for which the “Relative Potency” value under setting [1] worked out at 0. Regarding `CC(C)C[C@H](NC(=O)Cc1ccccc1)C(=O)NC(C(=O)N[C@@H](Cc1ccccc1)C(=O)N1CCCCC1)C(C(=O)O)C(=O)O` (stereo partly shown) [1026.04], under setting [1], the “Relative Potency” value stood at 2.32. For `CC(C)C[C@H](NC(=O)Cc1ccccc1)C(=O)N[C@@H](CC(=O)OCc1ccccc1)C(=O)N[C@@H](Cc1ccccc1)C(=O)N1CCC[C@@H]1C(N)=O` [1068.07] (PhAc-LD(OBn)F[dP]-NH2), the “Relative Potency (prodrug compound)” value is given as 0. As for `CC(C)C[C@H](NC(=O)c1ccncc1)C(=O)N[C@@H](CC(=O)O)C(=O)N[C@@H](Cc1ccccc1)C(=O)N1CCC[C@@H]1C(N)=O` [951.20] (Isonicotinoyl-LDF[dP]-NH2), the “Relative Potency” value is on record as 228.

Take `CC(C)C[C@H](NC(=O)Cc1ccccc1)C(=O)N[C@@H](CC(=O)O)C(=O)N[C@@H](CC(C)C)C(=O)N1CCOCC1` [997.20] (PhAc-Leu-Asp-Leu-Morpholide): under setting [1], the “Relative Potency” value is 291. On to `CCC(C)CC(=O)N[C@@H](CC(C)C)C(=O)N[C@@H](CC(=O)O)C(=O)N[C@H](C(=O)N1CCC[C@@H]1C(N)=O)C(C)C` (stereo partly shown) [896.46], for which the “Relative Potency” value amounted to 6.57.

With `CC(C)C[C@H](NC(=O)Cc1ccccc1)C(=O)N[C@@H](CC(=O)O)C(=O)N[C@@H](Cc1ccccc1)C(=O)NN1CCOCC1` [1111.10], the “Relative Potency” value under setting [1] was 98.9. In the case of `CC(C)C[C@H](NCc1ccccc1)C(=O)N[C@@H](CC(=O)O)C(=O)N[C@@H](Cc1ccccc1)C(=O)N1CCCCC1` [1033.01], the “Relative Potency” value is recorded as 5.84. Same read-out and setting: under `CC(C)C[C@@H](C(=O)N1C(=O)N([C@@H](Cc2ccccc2)C(=O)N2CCCCC2)C(=O)[C@@H]1CC(=O)O)N1C(=O)c2ccccc2C1=O` [1047.03] stands 0; under `CC(C)C[C@@H](C(=O)N[C@@H](CC(=O)O)C(=O)N[C@@H](Cc1ccccc1)C(=O)N1CCCCC1)N1C(=O)N[C@H](c2ccccc2)C1=O` [1047.01], 34.4. `CC(C)C[C@H](NC(=O)Cc1ccccc1)C(=O)N[C@@H](CC(=O)O)C(=O)NN1Cc2ccccc2NC1=O` [997.17]: the “Relative Potency” value under setting [1] worked out at 1.35. `CC(C)C[C@H](NC(=O)Cc1ccccc1)C(=O)N[C@@H](CC(=O)O)C(=O)NC1Cc2ccccc2N(CCN2CCOCC2)C1=O` (stereo partly shown) [997.18]: the “Relative Potency” value under setting [1] was determined as 20. As for `NC(=O)[C@H]1CCCN1C(=O)[C@H](Cc1ccccc1)NC(=O)[C@H](CC(=O)O)NC(=O)[C@H](CC1CCCCC1)NC(=O)[C@@H](N)Cc1ccccc1` [896.30] (H-F[Cha]DF[dP]-NH2), the “Relative Potency” value is on record as 2.69. For `NC(=O)[C@H]1CCCN1C(=O)[C@H](Cc1ccccc1)NC(=O)[C@H](CC(=O)O)NC(=O)CCCCCC1CCCCC1` [1056.07], the “Relative Potency” value came out at 0. In the case of `NC(=O)[C@H]1CCCN1C(=O)[C@H](Cc1ccccc1)NC(=O)[C@H](CC(=O)O)NC(=O)CCCCc1ccccc1` [1056.04], the “Relative Potency” value is on record as “.2”. Consider `CC(C)C[C@H](NS(=O)(=O)c1ccc(Br)cc1)C(=O)N[C@@H](CC(=O)O)C(=O)N[C@@H](Cc1ccccc1)C(=O)N1CCC[C@@H]1C(N)=O` [951.10] (Brosyl-LDF[dP]-NH2), for which the “Relative Potency” value was “.63”.

Consider `CC[C@H](C)[C@H](N)C(=O)N[C@@H](CC(C)C)C(=O)N[C@@H](CC(=O)O)C(=O)N[C@H](C(=O)N1CCC[C@@H]1C(N)=O)C(C)C` [886.10], for which the “Relative Potency” value is given as 5.38. Regarding `CC(C)C[C@H](NC(=O)Cc1ccc(O)c(O)c1)C(=O)N[C@@H](CC(=O)O)C(=O)N[C@@H](Cc1ccccc1)C(=O)N1CCCCC1` [1019.01], the “Relative Potency” value turned out to be 81.4. Turning to `CC(C)C[C@@H](C(=O)N[C@@H](CC(=O)O)C(=O)N[C@H](C(=O)N1CCC[C@@H]1C(N)=O)C(C)C)N1C(=O)c2ccccc2C1=O` [896.51], the “Relative Potency” value stood at 110.
